Source: patent US20160074420A1, “ORAL B12 THERAPY” (Emisphere Technologies, Inc., priority 2010, published 2016)
One block for each substance: values may come before it.

Legend:
[1] = Vitamin B12 absorption after dosing Sprague-Dawley rats (plasma vitamin B12 by RIA); format: in vivo; conditions: for AUC / Cmax / Tmax: male Sprague-Dawley rats, mean, N = 5
Experimental: (1) 8.8 mg of vitamin B12, 35 mg of SNAC were weighed, thoroughly mixed and made into a tablet for dosing in rats; (2) 8.8 mg of vitamin B12, 35 mg of SNAC and 5 mg of capmul PG-8 (propylene glycol monocaprylate) were weighed, thoroughly mixed and made into a tablet; (3) 8.8 mg of vitamin B12, 35 mg of SNAC and 0.9 mg of povidone were weighed, thoroughly mixed and made into a tablet. Each of the […] processes was repeated to produce more tablets.
Male Sprague-Dawley rats (325-350 g) were dosed with vitamin B12 intravenously (0.5 mg/kg) alone, or orally with the tablets made in Example 4 at a dose of 50 mg/kg, vitamin B12 alone or in combination with SNAC at 200 mg/kg. Blood samples were collected at 0, 3, 10, 20, 30, 60, 120, 240 and 360 minutes post dosing. Plasma samples were analyzed for vitamin B12 by RIA. The model independent pharmacokinetic (PK) metrics obtained following administration of the vitamin B12/SNAC combination were compared to those obtained following administration of vitamin B12 alone.

[2] = system: methylmalonic acid (MMA); experiment: Open label randomized study: serum MMA levels; format: in vivo, human; conditions: for mean (SD) percent change in MMA levels: serum
Experimental: (§1) This was an open-label, randomized 60-day study, with a 30-day extension, conducted in B12 deficient subjects. Subjects were assigned to a treatment according to a randomization schedule prepared by a statistician at the start of the study. The randomization scheme was stratified such that a balanced number of males and females were assigned to each treatment group. Subjects were randomized to receive either a 1000 μg oral tablet, administered once daily for 90 days or 1000 μg cyanocobalamin, administered IM on Days 1, 3, 7, 10, 14, 21, 30, 60 and 90.
(§2) A single tablet was self-administered in the fasted state and at least one hour prior to the morning meal with 50 mL water. IM study drug administration was performed by study personnel, in the research clinic, in the morning, in the fasted state and at least 1 hour prior to the morning meal on study Days 1, 3, 7, 10, 14, 21, 30, 60 and 90. For subjects assigned to receive tablets, treatment compliance was based on subject diary entries. Blood samples for pharmacodynamic assessments (efficacy variables) were collected from all subjects at baseline prior to dosing (Day 1), and on Days 15, 31, 61 and 91. Sample collection was carried out approximately 24 hours after the last dose administration, prior to that day's dose administration, and in the fasting state.
(§3) Serum cobalamin (B12) levels were determined by a validated microparticle enzyme immunoassay (MEIA) detection method with a calibration range of 100-2000 pg/mL. Sample dilution procedures were validated up to 4-fold dilution. Serum MMA levels were determined by a validated LC/MS/MS method with a calibration range of 5-200 ng/mL. Plasma HC levels were determined by a validated fluorescence polarization immunoassay (FIPA) detection method with a calibration range of 2.5-50 μmol/L; and plasma holotranscobalamin (active B12) levels were determined using a validated MEIA method, with a calibration range of 8-128 pmol/L. Sample dilution procedures were validated up to 32-fold dilution.
(§4) The primary efficacy variable was serum cobalamin levels on Day 61. The primary efficacy outcome compared the proportion of subjects in each treatment group whose cobalamin levels were normalized (≧350 pg/mL) on Day 61. The secondary efficacy variables were serum cobalamin levels on Day 91, serum MMA levels on Day 61 and Day 91 and, plasma total HC levels on Day 61 and Day 91.
(§5) The secondary efficacy outcomes were: comparison of the proportion of subjects in each treatment group whose cobalamin levels were normalized (≧350 pg/mL) on Day 91; comparison of the mean percent change from baseline in serum cobalamin levels among subjects in each treatment group on Day 61 and Day 91; comparison of the mean percent change from baseline in serum MMA levels among subjects in each treatment group on Day 61 and Day 91; comparison of the mean percent change from baseline in total plasma HC among subjects in each treatment group on Day 61 and Day 91; comparison of the mean first time to normalization of serum cobalamin (≧350 pg/mL) among subjects in each treatment group on Day 61 and Day 91. Exploratory efficacy variables and outcomes were: plasma holotranscobalamin levels on Day 61 and Day 91, measured by: comparison of the proportion of subjects in each treatment group whose holotranscobalamin levels were normalized (≧40 pmol/L) on Day 61 and Day 91; the relationship between cobalamin and holotranscobalamin levels on Day 61 and Day 91.
(§6) Change from baseline (CFB) is defined as (X−B). Percent change from baseline (PCFB) is defined as PCFB=100(X−B)/B, where B is the baseline (pre-dose Day 1) measurement and X is the measurement at Day 61 or Day 91, as required.
(§7) The proportion of subjects who achieved normalization of cobalamin levels (i.e., cobalamin ≧350 pg/mL) at Day 91 was to be analyzed using the same methodology as given above for the primary analysis (i.e., Day 61). […]

[3] = system: homocysteine (HC); experiment: Open label randomized study: plasma HC levels; format: in vivo, human; conditions: for mean (SD) percent change in HC levels: plasma
Experimental: as §1, §2, §3, §4, §5, §6, §7

[4] = Open label randomized study: plasma holotranscobalamin (active B12) levels; format: in vivo, human; conditions: for Holotranscobalamin Responder (%): number of subjects (%) with holotranscobalamin >=40 pmol/L; for Holotranscobalamin Responder (%) / Holotranscobalamin Non-responder (%): ITT; for Holotranscobalamin Non-responder (%): number of subjects (%)
Experimental: as §1, §2, §3, §5
The proportion of subjects who achieved normalization of holotranscobalamin levels (≧40 pmol/L) at Day 61 and Day 91 were analyzed using the same methodology as given for the primary analysis. The relationship between cobalamin and holotranscobalamin levels at Day 61 and Day 91, and the PCFB to Day 61 and Day 91 were explored. The relationship was analyzed graphically.

[5] = Open label randomized study: serum cobalamin (B12) levels in subjects with mild vitamin B12 deficiency; format: in vivo, human; conditions: for Cobalamin Responder (%): number of subjects (%) with cobalamin >=350 pg/mL; for Cobalamin Responder (%) / Cobalamin Non-responder (%): ITT; for Cobalamin Non-responder (%): number of subjects (%); for mean (SD) percent change in cobalamin levels: serum
Experimental: In this study, the efficacy and safety of the oral vitamin B12 formulation (1 mg) of the present invention and intramuscular (IM) cyanocobalamin (1 mg) were evaluated in subjects with mild vitamin B12 deficiency.
as §1, §2, §3, §4, §5
The analysis of the primary efficacy outcome compared the proportion of subjects in each treatment group whose cobalamin levels were normalized (i.e., cobalamin ≧350 pg/mL) on Day 61 Visit. The number and frequency of normalized subjects was calculated. […]

[6] = Open label randomized study: safety assessments (adverse events); format: in vivo, human; conditions: 90-day study
Experimental: Safety assessments consisted of monitoring adverse events (AEs), hematology, chemistry and urinalysis laboratory test results, concomitant medications, vital sign assessments, ECG and physical examination findings.
A resting 12-lead ECG was recorded at screening and at the End-of-Study visit prior to discharge from the study. The ECG parameters recorded included ventricular rate (bpm), PR interval (msec), QRS duration (msec), QT interval (msec), QTc interval (msec, Bazett's correction). A physical examination was performed at screening and at the End-of-Study visit prior to discharge from the study.
The safety population included all randomized subjects who received at least one administration of study product and who had at least one subsequent safety assessment. Subjects are included in this group based on the actual treatment received. All safety analyses were performed on the safety population.

[7] = cited from earlier work
[8] = 50 mg/kg vitamin B12 PO (tablet)
[9] = Day 1 (baseline prior to dosing)

AUC ([1]; 0.5 mg/kg IV): 65.84 µg·min/mL | Cmax ([1]; 0.5 mg/kg IV): 2150 ng/mL | Tmax ([1]; 0.5 mg/kg IV): 4.4 min | AUC [1, 8]: 28.72 µg·min/mL | Cmax [1, 8]: 140 ng/mL | Tmax [1, 8]: 52 min | Mean Bioavailability ([1]; 50 mg/kg vitamin B12 PO versus 0.5 mg/kg IV, rats): 0.42%
Substance: Vitamin B12

Substance: cyanocobalamin [IM B12]
MMA, Mean [2, 9]: 232 nmol/L | MMA, Mean ([2]; Day 15): 128 nmol/L | MMA, Mean ([2]; Day 61): 148 nmol/L | mean (SD) percent change in MMA levels ([2]; Day 61, change from baseline): −28.17 (24.754) percent | MMA, Mean ([2]; Day 91): 149 nmol/L | mean (SD) percent change in MMA levels ([2]; Day 91, change from baseline): −26.58 (25.643) percent | Homocysteine, Mean [3, 9]: 13 µmol/L | Homocysteine, Mean ([3]; Day 15): 10 µmol/L | Homocysteine, Mean ([3]; Day 61): 11 µmol/L | mean (SD) percent change in HC levels ([3]; Day 61, change from baseline): −17.49 (24.099) percent | Homocysteine, Mean ([3]; Day 91): 12 µmol/L | mean (SD) percent change in HC levels ([3]; Day 91, change from baseline): −8.805 (28.5406) percent | HTC, Mean [4, 9]: 34.32 pmol/L | HTC, Mean ([4]; Day 15): 899 pmol/L | Holotranscobalamin Responder (%) ([4]; Day 15): 26 (100.0) % | Holotranscobalamin Non-responder (%) ([4]; Day 15): 0 (0.0) % | HTC, Mean ([4]; Day 61): 739 pmol/L | Holotranscobalamin Responder (%) ([4]; Day 61): 26 (100.0) % | Holotranscobalamin Non-responder (%) ([4]; Day 61): 0 (0.0) % | HTC, Mean ([4]; Day 91): 877 pmol/L | Holotranscobalamin Responder (%) ([4]; Day 91): 26 (100.0) % | Holotranscobalamin Non-responder (%) ([4]; Day 91): 0 (0.0) % | Total B12, Mean [5, 9]: 369 pg/mL | Total B12, Mean ([5]; Day 15): 2434 pg/mL | Cobalamin Responder (%) ([5]; Day 15): 26 (100.0) % | Cobalamin Non-responder (%) ([5]; Day 15): 0 (0.0) % | Total B12, Mean ([5]; Day 61): 2258 pg/mL | mean (SD) percent change in cobalamin levels ([5]; Day 61, change from baseline): 714.6 (732.11) percent | Cobalamin Responder (%) ([5]; Day 61): 26 (100.0) % | Cobalamin Non-responder (%) ([5]; Day 61): 0 (0.0) % | Total B12, Mean ([5]; Day 91): 2057 ± 935 pg/mL | mean (SD) percent change in cobalamin levels ([5]; Day 91, change from baseline): 608.9 (446.68) percent | Total B12, Mean ([5]; Day 91, listed as IM Treatment Group): 2057 pg/mL | Cobalamin Responder (%) ([5]; Day 91): 26 (100.0) % | Cobalamin Non-responder (%) ([5]; Day 91): 0 (0.0) % | subjects reported at least one AE [6]: 57.7% | subjects reported serious adverse events (SAEs) [6]: 11.5% | Subjects who discontinued because of an AE ([6]; safety population): 0 (0)^ n (%) | Subjects with AEs ([6]; safety population): 15 (57.7) n (%) | Subjects with SAEs ([6]; safety population): 3 (11.5) n (%) | Subjects with TEAEs ([6]; safety population): 15 (57.7) n (%)

Substance: cyanocobalamin [Oral cyanocobalamin]
B12 levels increased by a mean value ([7]; 1000 μg/day oral, 1 week, in 17 of 20 elderly patients (Kaltenbach et al.)): 0.23 µg/L | patients normalized (serum B12 levels) ([7]; 2.5 year study (Andres et al.)): 95% | patients achieved normal serum B12 levels ([7]; 3 month studies (Andres et al.)): 80-90% | patients with clinical improvements ([7]; Andres et al.): 20-30%
